Source: US11339183B2, “Phosphate and phosphonate derivatives of 7-amino-5-thio-thiazolo[4,5-d]pyrimidines and their use in treating conditions associated with elevated levels of CX3CR1 and/or CX3CL1” (KANCERA AB, priority 2018, dated 2022)
Where a name gives a salt, the structure may show the parent alone.

Experiments:
[1] = Plasma concentration (AUC of plasma Compound A) in mice after intravenous and peroral administration; format: in vivo; details: blood 0.083-24 hours; for AUC: male, CD1, mouse, plasma
Method: (§1) A peroral dosing solution of Compound A (12 mg/mL) in 30% HP-β-CD in 10 mM Na2PO4 and an intravenous dosing solution of Compound A (2.5 mg/mL) in 30% HP-β-CD in 10 mM Na2PO4 in DPBS were prepared. The intravenous dosing solution was administered to male CD1 mice (weight 28-30 g) via intravenous injection (25 mg/kg) and the peroral dosing solution was administered to male CD1 mice (weight 28-30 g) via oral gavage (120 mg/kg).
Blood was collected from the animals at time points of 0.083, 0.25, 0.5, 1, 2, 4, 6, 12 and 24 hours and analysed for blood plasma concentration, and the data generated were used to calculate the area under the curve (AUC) values shown in Table 5.
as §1, with “Compound A HCl salt (12 mg/mL)” for “Compound A (12 mg/mL)”, “Compound A HCl salt (2.5 mg/mL)” for “Compound A (2.5 mg/mL)”, “oral gavage (125 mg/kg).” for “oral gavage (120 mg/kg).”
A peroral dosing solution of Example 1 disodium salt in water (15.4 mg/mL) at a pH of 7.18 and an intravenous dosing solution of Example 1 disodium salt in water (6.4 mg/mL) at a pH of 7.11 were prepared by dissolving Example 1 diammonium salt in water and adjusting the pH with 0.1M NaOH solution. The intravenous dosing solution was administered to male CD1 mice (weight 24-25 g) via tail injection (32 mg/kg) and the peroral dosing solution was administered to male CD1 mice (weight 24-25 g) via oral gavage (154 mg/kg).

[2] = Comparative kinetic solubility in phosphate buffer pH 7.4 (HPLC-UV); format: physicochemical; details: aqueous buffer, kinetic from dmso stock, nominal 250 μM in 50 mM phosphate buffer pH 7.4, agitated 1 hour, filtered
Method: Samples of the compound of Example 1 and (2R)-2-[(2-amino-5-{[(1S)-1-phenylethyl]sulfanyl}-[1,3] thiazolo[4,5-d]pyrimidin-7-yl)amino]-4-methylpentan-1-ol. HCl (compound A) were diluted to a nominal concentration of 250 μM in 50 mM phosphate buffer pH 7.4 then agitated for 1 hour and filtered.
Standard solutions of the two compounds at concentrations of 25 and 250 μM in 50:50 acetontrile:water were prepared.
The solutions were then analysed by reverse phase HPLC with UV-detection, and solubility was determined by the ratio of the sample peaks to the standard curve.

[3] = Comparative stability of solutions on long-term storage at room temperature (HPLC-MS); format: physicochemical; details: for Degradation products observed on storage in aqueous solution: HPLC-MS, storage at room temperature; for Aqueous solubility (in words): dissolving in pure water / need for co-solvents; for Stability of aqueous formulations to storage (in words): room temperature; for Compound A % area: water + 20% MeOH, 1.75 mg/mL; for Example 1 % area: aqueous solution (MilliQ water) 1.7 mg/mL
[4] = Further stability studies: aqueous solutions stored 60 days at room temperature and/or 40° C. (HPLC-MS); format: physicochemical
Method: Aqueous solutions of several of the example compounds were prepared at concentrations of 1.2 mg/mL (10 mg/mL for Example 1 (no salt)) according to the following procedures. • i) Examples 1 b, 2h and 3 (diammonium salts) were dissolved in pure water. • ii) Examples 1d (diammonium salt) and 1n (monoammonium salt) were suspended in water and Na2HPO3 was added until all of the compound was in solution. • iii) Examples 1q, 4f an 4g (no salts) were dissolved in water with added DMSO (100 μL) and (2-hydroxypropyl)-β-cyclodextrin was added until all of the compound was in solution.
The stability of the compounds to long-term storage in aqueous solution at room temperature and/or 40° C. was then assessed by analysis of the solution by HPLC-MS after 60 days.

[5] = aqueous solution 1.2 mg/mL, 40° C., 1d, 1n with Na2HPO3, 1q, 4f, 4g with DMSO and (2-hydroxypropyl)-β-cyclodextrin
[6] = aqueous solution 1.2 mg/mL, room temperature, 1d, 1n with Na2HPO3, 1q, 4f, 4g with DMSO and (2-hydroxypropyl)-β-cyclodextrin

Question: With `CC(C)C[C@H](CO)Nc1nc(S[C@@H](C)c2ccccc2)nc2nc(N)sc12` [Compound A •HCl, (2R)-2-[(2-amino-5-{[(1S)-1-phenylethyl]sulfanyl}-[1,3]thiazolo[4,5-d]pyrimidin-7-yl)amino]-4-methylpentan-1-ol. HCl] as the compound, how does the AUC ([1]; iv, 25 mg/kg) read?
Answer: 50.1 µM·h

Question: What about the AUC ([1]; po, 125 mg/kg, PO (oral gavage), 125 mg/kg (284 mol/kg)) of the same compound?
Answer: 170 µM·h

Question: What about the solubility at 1 h [2] of the same compound?
Answer: 5 µM

Question: Which “Plasma Compound A AUC” value ([1]; male CD1 mice, IV, 25 mg/kg) does the source give for `CC(C)C[C@H](CO)Nc1nc(S[C@@H](C)c2ccccc2)nc2nc(N)sc12` [Compound A, (2R)-2-[(2-amino-5-{[(1S)-1-phenylethyl]thio}[1,3]thiazolo[4,5-d]pyrimidin-7-yl)amino]-4-methylpentan-1-ol] here?
Answer: 45.92 µM·h

Question: And the AUC ([1]; po, 120 mg/kg, PO (oral gavage), 120 mg/kg (297 mol/kg))?
Answer: 92.6 µM·h

Question: What about the “Compound A remaining %” value ([3]; 1.18 mg/mL in water, polyethylene glycol 24% (v/v), RT, 0 days) of the same compound?
Answer: 98.5%

Question: And the “Compound A remaining %” value ([3]; 1.18 mg/mL in water, polyethylene glycol 24% (v/v), RT, 3 days)?
Answer: 97.7%

Question: What about the “Compound A remaining %” value ([3]; 1.18 mg/mL in water, polyethylene glycol 24% (v/v), RT, 56 days) of the same compound?
Answer: 28%

Question: What about the “Compound A remaining %” value ([3]; 1.22 mg/mL in water, polyethylene glycol 24% (v/v), RT, 0 days) of the same compound?
Answer: 98.6%

Question: And the “Compound A remaining %” value ([3]; 1.22 mg/mL in water, polyethylene glycol 24% (v/v), RT, 3 days)?
Answer: 98.0%

Question: What about the “Compound A remaining %” value ([3]; 1.22 mg/mL in water, polyethylene glycol 24% (v/v), RT, 56 days) of the same compound?
Answer: 31%

Question: And the “Compound A remaining %” value ([3]; 2.25 mg/mL in water, polyethylene glycol 26% (v/v), RT, 0 days)?
Answer: 98.5%

Question: And the “Compound A remaining %” value ([3]; 2.25 mg/mL in water, polyethylene glycol 26% (v/v), RT, 3 days)?
Answer: 97.7%

Question: What about the “Compound A remaining %” value ([3]; 2.25 mg/mL in water, polyethylene glycol 26% (v/v), RT, 56 days) of the same compound?
Answer: 35%

Question: And the “Compound A remaining %” value ([3]; 3.2 mg/mL in water, polyethylene glycol 28% (v/v), ethanol 0, RT, 0 days)?
Answer: 98.4%

Question: And the “Compound A remaining %” value ([3]; 3.2 mg/mL in water, polyethylene glycol 28% (v/v), ethanol 0, RT, 14 days)?
Answer: 88.1%

Question: And the “Compound A remaining %” value ([3]; 3.2 mg/mL in water, polyethylene glycol 28% (v/v), ethanol 0, RT, 70 days)?
Answer: 60.7%

Question: What about the “Compound A remaining %” value ([3]; 4.0 mg/mL in water, polyethylene glycol 25% (v/v), ethanol 3% (v/v), RT, 0 days) of the same compound?
Answer: 98.4%

Question: And the “Compound A remaining %” value ([3]; 4.0 mg/mL in water, polyethylene glycol 25% (v/v), ethanol 3% (v/v), RT, 14 days)?
Answer: 92.3%

Question: And the “Compound A remaining %” value ([3]; 4.0 mg/mL in water, polyethylene glycol 25% (v/v), ethanol 3% (v/v), RT, 70 days)?
Answer: 75.1%

Question: And the “Degradation products observed on storage in aqueous solution” value [3]?
Answer: the debenzylated thiol and the corresponding disulfide together with phenyl ethanol and minor amounts of styrene

Question: What about the “Aqueous solubility (in words)” value [3] of the same compound?
Answer: not possible to dissolve

Question: And the “Stability of aqueous formulations to storage (in words)” value [3]?
Answer: unstable to storage at room temperature

Question: What about the “Compound A % area” value ([3]; RT, 0 days) of the same compound?
Answer: 98.4% area

Question: What about the “Compound A % area” value ([3]; RT, 4 days) of the same compound?
Answer: 96.7% area

Question: For `CC(C)C[C@H](COP(=O)(O)O)Nc1nc(S[C@@H](C)c2ccccc2)nc2nc(N)sc12` [Example 1, (2R)-2-[(2-Amino-5-{[(1S)-1-phenylethyl]sulfanyl}[1,3]thiazolo[4,5-d]pyrimidin-7-yl)amino]-4-methylpentyl dihydrogen phosphate], which “% Area by HPLC (60 days)” value ([4]; Example 1 (no salt), aqueous solution 10 mg/mL, 40° C.) is on record?
Answer: 100 % Area

Question: And the solubility at 1 h [2]?
Answer: 118 µM

Question: What about the “Degradation products observed on storage in aqueous solution” value [3] of the same compound?
Answer: not observed

Question: And the “Example 1 % area” value ([3]; RT, 0 days of storage)?
Answer: 99.6 % area

Question: And the “Example 1 % area” value ([3]; RT, 4 days of storage)?
Answer: 99.6 % area

Question: What about the “Example 1 % area” value ([3]; RT, 13 days of storage) of the same compound?
Answer: 99.6 % area

Question: What about the “Example 1 % area” value ([3]; RT, 20 days of storage) of the same compound?
Answer: 99.6 % area

Question: And the “Example 1 % area” value ([3]; RT, 40 days of storage)?
Answer: 99.6 % area

Question: What about the “Aqueous solubility (in words)” value [3] of the same compound?
Answer: improved aqueous solubility (no co-solvents required)

Question: What about the “Stability of aqueous formulations to storage (in words)” value [3] of the same compound?
Answer: unexpectedly pronounced stability over Compound A

Question: Which results are given for `CC(C)C[C@H](COP(=O)(O)O)Nc1nc(SC(C)c2ccccc2F)nc2nc(N)sc12` (stereo partly drawn) [Example 1b, (2R)-2-[(2-Amino-5-{[1-(2-fluorophenyl)ethyl]sulfanyl}[1,3]thiazolo[4,5-d]pyrimidin-7-yl)amino]-4-methylpentyl dihydrogen phosphate]?
Answer: % Area by HPLC (60 days) [4, 5]: 100 % Area; % Area by HPLC (60 days) [4, 6]: 100 % Area

Question: Which “% Area by HPLC (60 days)” value [4, 5] does the source give for `CC(C)C[C@H](COP(=O)(O)O)Nc1nc(SC(C)c2ccc(Cl)cn2)nc2nc(N)sc12` (stereo partly drawn) [Example 1d, (2R)-2-[(2-Amino-5-{[1-(5-chloropyridin-2-yl)ethyl]sulfanyl}[1,3]thiazolo[4,5-d]pyrimidin-7-yl)amino]-4-methylpentyl dihydrogen phosphate] here?
Answer: 99.7 % Area

Question: And the “% Area by HPLC (60 days)” value [4, 6]?
Answer: 98.0 % Area

Question: Which results are given for `CC(C)C[C@H](COP(=O)(O)OC(C)C)Nc1nc(S[C@@H](C)c2ccccc2)nc2nc(N)sc12` [Example 1n, (2R)-2-[(2-Amino-5-{[(1S)-1-phenylethyl]sulfanyl}[1,3]thiazolo[4,5-d]pyrimidin-7-yl)amino]-4-methylpentyl 1-methylethyl hydrogen phosphate]?
Answer: % Area by HPLC (60 days) [4, 5]: 100 % Area; % Area by HPLC (60 days) [4, 6]: 98.2 % Area

Question: Which “% Area by HPLC (60 days)” value [4, 5] does the source give for `CC(C)C[C@H](CO)Nc1nc(S[C@@H](C)c2ccc(Cl)cn2)nc2c1sc(=O)n2COP(=O)(O)O` [Example 2h, [5-{[(1S)-1-(5-Chloropyridin-2-yl)ethyl]sulfanyl}-7-{[(1R)-1-(hydroxymethyl)-3-methylbutyl]amino}-2-oxo[1,3]thiazolo[4,5-d]pyrimidin-3(2H)-yl]methyl dihydrogen phosphate] here?
Answer: 82.2 % Area

Question: And the “% Area by HPLC (60 days)” value [4, 6]?
Answer: 92.3 % Area

Question: With `CC(C)C[C@H](COP(=O)(O)O)Nc1nc(S[C@@H](C)c2ccc(Cl)cn2)nc2[nH]c(=O)sc12` [Example 3, (2R)-2-[(5-{[(1S)-1-(5-chloropyridin-2-yl)ethyl]sulfanyl}-2-oxo-2,3-dihydro[1,3]thiazolo[4,5-d]pyrimidin-7-yl)amino]-4-methylpentyl dihydrogen phosphate] as the compound, how does the “% Area by HPLC (60 days)” value [4, 5] read?
Answer: 100 % Area

Question: And the “% Area by HPLC (60 days)” value [4, 6]?
Answer: 99.6 % Area
